Measured values reported in patent US10501441B2, “Substituted imidazolylcarboxamides as pesticides” (BAYER CROPSCIENCE AKTIENGESELLSCHAFT, priority 2016, dated 2019).
Where two headings read alike, the source gives them in different places.

Columns and labels:
Myzus persicae [1] = assay: Myzus persicae - oral test (MYZUPE O); type: in vivo; conditions: for efficacy (aphids killed) / pest or weed control at 20 ppm: 20 ppm, after 5 days; for pest or weed control at 20 ppm / Emax at 0.8 ppm / Emax at 4 ppm: Myzus persicae, po, 120 h; for pest or weed control at 20 ppm: read-out: efficacy (aphids killed); for Emax at 0.8 ppm / Emax at 4 ppm: MYZUPE O, 5 dat, read-out: % efficacy
Experimental: Solvent: 100 parts by weight of acetone
50 μl of the active compound preparation are transferred into microtitre plates and made up to a final volume of 200 μl with 150 μl of IPL41 insect medium (33%+15% sugar). Subsequently, the plates are sealed with parafilm, which a mixed population of green peach aphids (Myzus persicae) within a second microtitre plate is able to puncture and imbibe the solution through it.
After 5 days, the efficacy in % is determined. 100% means that all the aphids have been killed; 0% means that no aphids have been killed.
Myzus persicae—Oral Test (MYZUPE O)
(§1) After the desired period of time (dat), the efficacy in % is determined. 100% means that all the aphids have been killed; 0% means that no aphids have been killed.

[2] = log P by reversed-phase HPLC (C18), EEC directive 79/831 Annex V.A8, neutral range; type: physicochemical; conditions: pH 7.8; for chromatographic logP: reversed-phase HPLC column (C18), read-out: Logp [n]
Experimental: a) The log P values reported in the tables and preparation examples above were determined in accordance with EEC directive 79/831 Annex V.A8 by HPLC (High Performance Liquid Chromatography) using a reversed-phase column (C18). Temperature 43° C. The calibration is effected with unbranched alkan-2-ones (having 3 to 16 carbon atoms), for which the log P values are known. […] The log P values for the acidic range (as log P [a]) and/or for the neutral range (as log P [n]) were stated in the tables and preparation examples above.

Myzus persicae [3] = assay: Myzus persicae - spray test (MYZUPE); type: in vivo; conditions: for efficacy (aphids killed) / pest or weed control at 500 g/ha: 500 g/ha, Chinese cabbage leaf discs, after 5-6 days; for pest or weed control at 500 g/ha / Emax at 100 g/ha: Myzus persicae; for pest or weed control at 500 g/ha: foliar, read-out: efficacy (aphids killed); for Emax at 100 g/ha: MYZUPE, 100 g of ai/ha, read-out: % efficacy
Experimental: Myzus persicae—Spray Test
Solvents: 78 parts by weight of acetone • • 1.5 parts by weight of dimethylformamide
(§2) Emulsifier: alkylaryl polyglycol ether
After 5-6 days, the efficacy in % is determined. 100% means that all the aphids have been killed; 0% means that no aphids have been killed.
Myzus persicae—Spray Test (MYZUPE)
(§3) Solvents: 78.0 parts by weight of acetone • • 1.5 parts by weight of dimethylformamide
as §1

Tetranychus urticae = Tetranychus urticae - spray test, OP-resistant (TETRUR); type: in vivo; conditions: for efficacy (spider mites killed): 500 g/ha, bean leaf discs, after 6 days; for Emax at 500 g/ha: Tetranychus urticae, 144 h, TETRUR, 6 dat, read-out: % efficacy
Experimental: Tetranychus urticae—Spray Test, OP-Resistant
as §3, §2
After 6 days, the efficacy in % is determined. 100% means that all the spider mites have been killed; 0% means that no spider mites have been killed.
Tetranychus urticae—Spray Test; OP Resistant (TETRUR)
After the desired period of time (dat), the efficacy in % is determined. 100% means that all the spider mites have been killed; 0% means that none of the spider mites have been killed.

[4] = neutral range, HPLC C18, 43° C.

| Structure (SMILES) | efficacy (aphids killed) (Myzus persicae [1]) [%] | Logp [n] [2, 4] | efficacy (aphids killed) (Myzus persicae [3]) [%] | Emax at 0.8 ppm (Myzus persicae [1]) [%] | further results |
| --- | --- | --- | --- | --- | --- |
| CCN(C(=O)c1cnc(-n2cc(C(F)(F)F)cn2)n1C)c1cccnc1 [I-1-014] | 100 | 2.09 | 90 |  |  |
| CN(C(=O)c1cnc(-n2ccc(C#N)n2)n1C)c1cccnc1 [I-1-003] | 100 | 1.31 | 90 |  |  |
| CCN(C(=O)c1cnc(-n2cc(C#N)cn2)n1C)c1cccnc1 [I-1-015] |  |  |  | 100 | pest or weed control at 20 ppm (Myzus persicae [1]): 100%; Emax at 4 ppm (Myzus persicae [1]): 100%; efficacy (spider mites killed) (Tetranychus urticae): 90%; Emax at 500 g/ha (Tetranychus urticae): 90%; chromatographic logP [2, 4]: 1.42; pest or weed control at 500 g/ha (Myzus persicae [3]): 90% |
| CN(C(=O)c1cnc(-n2cc(C#N)cn2)n1C)c1cccnc1 [I-1-008] | 100 | 1.14 | 100 |  |  |
| CN(C(=O)c1cnc(-n2ccc(C(F)(F)F)n2)n1C)c1cccnc1 [I-1-007, N,1-dimethyl-N-(pyridin-3-yl)-2-[3-(trifluoromethyl)-1H-pyrazol-1-yl]-1H-imidazole-5-carboxamide] |  |  |  |  | pest or weed control at 20 ppm (Myzus persicae [1]): 100%; chromatographic logP [2, 4]: 1.87; pest or weed control at 500 g/ha (Myzus persicae [3]): 100% |
| CN(C(=O)c1cnc(-n2ncc(C#N)c2N)n1C)c1cccnc1 [I-1-028] |  | 0.78 |  |  |  |
| CN(C(=O)c1cnc(N2CCCCC2)n1C)c1cccnc1 [I-1-013] | 100 | 1.53 | 100 |  |  |
| CN(C(=O)c1cnc(N2CCC(c3ccccc3)CC2)n1C)c1cccnc1 [I-1-018] | 100 | 2.38 | 100 |  |  |
| COc1ncn(-c2ncc(C(=O)N(C)c3cccnc3)n2C)n1 [I-1-011] |  |  |  | 90 | Emax at 4 ppm (Myzus persicae [1]): 90%; Emax at 100 g/ha (Myzus persicae [3]; 120 h, 5 dat): 70% |
| CC(C)c1cnn(-c2ncc(C(=O)N(C)c3cccnc3)n2C)c1 [I-1-030] |  | 1.84 |  |  |  |
| Cc1cnn(-c2ncc(C(=O)N(C)c3cccnc3)n2C)c1 [I-1-021] | 100 | 1.29 | 100 |  |  |
| CN(C(=O)c1cnc(-n2cc(C(F)(F)F)cn2)n1C)c1cccnc1 [I-1-006] |  |  |  | 100 | pest or weed control at 20 ppm (Myzus persicae [1]): 100%; chromatographic logP [2, 4]: 1.82; Emax at 100 g/ha (Myzus persicae [3]; 144 h, 6 dat): 100%; pest or weed control at 500 g/ha (Myzus persicae [3]): 100% |
| Cc1nc(C(=O)Nc2cccnc2)c[nH]1 [Ex. No. 14 WO2011/009804, reference compound] |  |  |  | 0 | Emax at 4 ppm (Myzus persicae [1]): 0%; Emax at 500 g/ha (Tetranychus urticae): 0%; Emax at 100 g/ha (Myzus persicae [3]; 5/6 dat): 0% |
| CN(C(=O)c1cnc(-n2cccn2)n1C)c1cccnc1 [I-1-002] | 100 | 1.01 | 90 |  |  |
| CN(C(=O)c1cnc(-n2cccc2)n1C)c1cccnc1 [I-1-001] |  |  |  | 100 | pest or weed control at 20 ppm (Myzus persicae [1]): 100%; Emax at 4 ppm (Myzus persicae [1]): 100%; chromatographic logP [2, 4]: 1.27; Emax at 100 g/ha (Myzus persicae [3]; 144 h, 6 dat): 90%; pest or weed control at 500 g/ha (Myzus persicae [3]): 90% |
| CN(C(=O)c1cnc(-n2ccc(Cl)n2)n1C)c1cccnc1 [I-1-004] |  |  |  | 100 | pest or weed control at 20 ppm (Myzus persicae [1]): 100%; Emax at 4 ppm (Myzus persicae [1]): 100%; chromatographic logP [2, 4]: 1.48; Emax at 100 g/ha (Myzus persicae [3]; 144 h, 6 dat): 90%; pest or weed control at 500 g/ha (Myzus persicae [3]): 100% |
| CC1CC(C)CN(c2ncc(C(=O)N(C)c3cccnc3)n2C)C1 (stereo not drawn) [I-1-020] | 100 | 2.21 | 100 |  |  |

| Structure (SMILES) | efficacy (aphids killed) (Myzus persicae [1]) [%] | Logp [n] [2, 4] | efficacy (aphids killed) (Myzus persicae [3]) [%] | Emax at 0.8 ppm (Myzus persicae [1]) [%] | further results |
| --- | --- | --- | --- | --- | --- |
| O=C(Nc1cccnc1)c1c[nH]cn1 [Ex. No. 13 WO2011/009804, reference compound] |  |  |  | 0 | Emax at 4 ppm (Myzus persicae [1]): 0%; Emax at 500 g/ha (Tetranychus urticae): 0%; Emax at 100 g/ha (Myzus persicae [3]; 144 h, 6 dat): 0% |
| CN(C(=O)c1cnc(-n2cc(Cl)cn2)n1C)c1cccnc1 [I-1-005] | 100 | 1.49 | 90 |  |  |
| CCN(C(=O)c1cnc(-n2ccc(C#N)n2)n1C)c1cccnc1 [I-1-029] |  | 1.53 |  |  |  |
| CN(C(=O)c1cnc(N2CCOCC2)n1C)c1cccnc1 [I-1-009, N,1-Dimethyl-2-(morpholin-4-yl)-N-(pyridin-3-yl)-1H-imidazole-5-carboxamide] |  |  |  | 70 | pest or weed control at 20 ppm (Myzus persicae [1]): 100%; efficacy (spider mites killed) (Tetranychus urticae): 90%; Emax at 500 g/ha (Tetranychus urticae): 90%; chromatographic logP [2, 4]: 0.85; Emax at 100 g/ha (Myzus persicae [3]; 144 h, 6 dat): 70%; pest or weed control at 500 g/ha (Myzus persicae [3]): 100% |
| Cc1cn(-c2ncc(C(=O)N(C)c3cccnc3)n2C)nc1C [I-1-023] |  | 1.42 |  |  |  |
| CN(C(=O)c1cnc(N2CCCC2)n1C)c1cccnc1 [I-1-019] | 100 |  | 100 |  | Logp [n] [2]: 1.19 |
| CN(C(=O)c1cnc(-n2cnc(Cl)n2)n1C)c1cccnc1 [I-1-026] |  | 1.17 |  |  |  |
| CSc1ccn(-c2ncc(C(=O)N(C)c3cccnc3)n2C)n1 [I-1-012] | 100 | 1.57 | 90 |  |  |
| CN(C(=O)c1cnc(N2CCC(C#N)CC2)n1C)c1cccnc1 [I-1-017] |  |  |  | 100 | pest or weed control at 20 ppm (Myzus persicae [1]): 100%; Emax at 4 ppm (Myzus persicae [1]): 100%; chromatographic logP [2, 4]: 1.16; Emax at 100 g/ha (Myzus persicae [3]; 120 h, 5 dat): 90%; pest or weed control at 500 g/ha (Myzus persicae [3]): 100% |
| CN(C(=O)c1cnc(Cl)n1C)c1cccnc1 [2-Chloro-N, 1-dimethyl-N-(pyridin-3-yl)-1H-imidazole-5-carboxamide] |  |  |  |  | chromatographic logP [2, 4]: 0.88 |
| CN(C(=O)c1cnc(-n2cnc(C(F)(F)F)c2)n1C)c1cccnc1 [I-1-010] |  |  |  | 100 | pest or weed control at 20 ppm (Myzus persicae [1]): 100%; Emax at 4 ppm (Myzus persicae [1]): 100%; chromatographic logP [2, 4]: 1.38; Emax at 100 g/ha (Myzus persicae [3]; 144 h, 6 dat): 70%; pest or weed control at 500 g/ha (Myzus persicae [3]): 100% |
| CN(C(=O)c1cnc(-n2cc3c(n2)CCC3)n1C)c1cccnc1 [I-1-027] |  | 1.5 |  |  |  |
| CC1CCN(c2ncc(C(=O)N(C)c3cccnc3)n2C)CC1 [I-1-016] | 100 | 1.87 | 90 |  |  |
| Cc1ccn(-c2ncc(C(=O)N(C)c3cccnc3)n2C)n1 [I-1-024] |  | 1.18 |  |  |  |
| CSc1ncn(-c2ncc(C(=O)N(C)c3cccnc3)n2C)n1 [I-1-011] | 100 | 1.27 | 100 |  |  |
| CN(C(=O)c1cnc(-n2ccnc2)n1C)c1cccnc1 [I-1-025] |  |  |  |  | Logp [n] [2]: 0.56 |
